Source: patent US11786447B2, “Conditioner composition comprising a chelant” (The Procter & Gamble Company, priority 2016, dated 2023)

Test: Measurement of copper on hair after shampoo/rinse-off conditioner wash cycles (ICP-OES)
Details: picolinic acid in the rinse-off conditioner; after 20 clarifying shampoo/rinse-off conditioner cycles
Procedure: All testing are performed on colored hair switches (see Method of Measurement of copper on hair below) weighing approximately 4.0 grams and having a length of approximately 6 inches. The hair switches are commercially available from IHIP (International Hair Importers). Three hair switches per shampoo composition are used. An amount of […] of shampoo is spread via a syringe onto separate hair switch. That is, the dosage is 0.10 g of shampoo per g of hair. Each application consists of adding shampoo to the hair, milking for 30 seconds followed by rinsing for 30 seconds. Shampoo is then reapplied (0.1 g/g), milked for 30 seconds and rinsed for 30 seconds. Excess water is squeezed from the hair switches and left to air dry or treated with a rinse-off conditioner and/or a leave-on treatment composition. This protocol is repeated for a number of times/cycles (as indicated in the tables below, which describe the details of hair treatments).
All testing are performed on colored hair switches (see Method of Measurement of copper on hair below) weighing approximately 4.0 grams and having a length of approximately 6 inches. […]
Samples of 100 mg of hair were digested overnight with 2 ml of high purity concentrated nitric acid. […] Copper content of the hair switches was determined by inductively coupled plasma atomic spectroscopy (ICP-OES)). For each leg, 3 different samples were analyzed. […]

For `O=C(O)c1ccccn1` [picolinic acid], the “Removal of copper from hair compared to clarifying shampoo/control rinse-off conditioner” value was “effective removal of copper from hair”.
